Test results taken from patent publication US8252520B2, “Methods and compounds for inhibiting Hec1 activity for the treatment of proliferative diseases” (Taivex Therapeutics Corporation, priority 2002, dated 2012).
“Also recorded” adds a separate entry of the source.

Assays:
Assay type in all cases: cell-based
HeLa cells [1] = experiment: small-scale killing of dividing HeLa cells; conditions: dose of 20 (unit not given)
Excerpt: (§1) To determine whether the identified compounds would have the same effect in mammalian cells, we used HeLa cells to test the effects of these compounds in a small-scale experiment. […] These two compounds were named INH1 and INH2 (INH1, MW: 308.41; also referred to herein as IBT 13131; see FIG. 16; INH2, MW 382.49; also referred to herein as IBT 14664; see FIG. 16).

HeLa cells [2] = experiment: colony formation assay in HeLa cells; conditions: 12 days treatment, INH1 compared with INH2
Method: FIG. 12. Effects of INH1 and INH2 on colony formation of HeLa cells. Exponentially grown cells were seeded at 800 cells per 10-cm dish for 24 h and treated with indicated concentrations of INH1 (MW: 308.41; also referred to herein as IBT 13131; see FIG. 17), INH2 (MW 382.49; also referred to herein as IBT 14664; see FIG. 17), or control (DMSO less than 0.1%) for 12 days. The colonies were fixed and stained with methylene blue and counted. The values were averaged from a triplicate set of experiments, and error bars represent the SEM.
as §1

[3] = target: T1, interaction between Hec1 and Nek2 (Homo sapiens, UniProt O14777); experiment: co-immunoprecipitation of Nek2 with Hec1 from treated HeLa cells; conditions: 10 and 20 μM, 24 hours
T1 construct: endogenous in cells; host or cells: HeLa cells
T1 sequence (O14777 1-642): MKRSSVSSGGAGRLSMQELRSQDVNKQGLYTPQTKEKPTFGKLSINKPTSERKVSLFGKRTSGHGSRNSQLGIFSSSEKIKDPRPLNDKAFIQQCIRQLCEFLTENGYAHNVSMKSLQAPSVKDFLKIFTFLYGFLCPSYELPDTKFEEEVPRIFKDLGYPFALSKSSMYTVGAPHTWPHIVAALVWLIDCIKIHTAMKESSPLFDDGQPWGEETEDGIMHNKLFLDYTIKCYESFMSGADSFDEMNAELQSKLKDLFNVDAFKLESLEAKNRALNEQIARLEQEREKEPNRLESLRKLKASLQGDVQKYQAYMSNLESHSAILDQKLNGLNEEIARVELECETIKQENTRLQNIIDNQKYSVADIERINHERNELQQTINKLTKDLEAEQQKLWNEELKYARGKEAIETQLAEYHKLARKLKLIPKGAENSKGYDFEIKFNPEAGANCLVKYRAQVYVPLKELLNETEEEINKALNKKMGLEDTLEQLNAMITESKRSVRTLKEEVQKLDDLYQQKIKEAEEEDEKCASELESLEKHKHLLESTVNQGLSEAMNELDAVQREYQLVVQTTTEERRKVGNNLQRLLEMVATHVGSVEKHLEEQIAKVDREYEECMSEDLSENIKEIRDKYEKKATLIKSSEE
Method: FIG. 13A. Dissociation of Hec1 and Nek2 in INH1I-treated cells. HeLa cells were grown in log-phase and treated with 0.08% DMSO or with the indicated concentration of INH1 for 24 hours. Cells were harvested for immunoprecipitation with the anti-Hec1 antibody mAb 9G3. The immunoprecipitates were analyzed by western blot with either mAb 9G3 or anti-Nek2 antibodies. […] Fractions of lysates were taken for straight western blot with anti-Rad50 antibodies as a loading control.
(§2) We performed a co-immunoprecipitation assay using cells treated with INH1 or INH2 to test whether these compounds disrupt the interaction between Hec1 and Nek2. […] Similarly, we examined whether Nek2 phosphorylation of Hec1 is diminished in the cells treated with these drugs by Western blotting with […], which recognizes specifically the phosphorylated S165 of Hec1.

[4] = tested on: Nek2 phosphorylation of Hec1 at S165; experiment: Western blot of Hec1 S165 phosphorylation (anti-A439) in treated HeLa cells; conditions: 20 μM, 36 hours
Method: HeLa cells (lane 1) were treated with 0.08% DMSO (lane 2), 20 μM of INH1 (lane 3), INH2 (lane 4) or nocodazole (lane 5) for 36 hours before cells were harvested for immunoblotting with anti-Hec1, mAb9G3, for total Hec1 protein or anti-A439 for the phosphorylated Hec1 at S165 (pHEC1). Nek2 phosphorylation of Hec1 is undetectable in INH1 and INH2 treated cells (lanes 3 and 4).
as §2

HeLa cells [5] = experiment: microscopy of H2B-GFP labeled HeLa cells (chromosome segregation); conditions: 10 mM of INH1 (FIG. 14A)
Method: FIG. 14A. Micrographic pictures of H2B-GFP labeled HeLa cells treated with DMSO (Mock) or 10 mM of INH1. White arrows indicate lagging chromosomes during M phase.

HeLa cells [6] = experiment: flow cytometric (FACS) analysis of treated HeLa cells; conditions: 5 or 10 μM, 72 hrs
Method: FIG. 14B. Flow cytometric analysis of INH1 treated HeLa cells. Exponentially grown HeLa cells were seeded at 5×10^5 cells per 10-cm dish for 24 hrs and then treated with DMSO (control) or 5 or 10 μM of INH1 for 72 hrs. Cells were harvested and fixed in 70% ethanol for flow cytometry after staining with propidium iodide. Data represent one of three independent experiments.

[7] = tested on: RB-reconstituted Saos2 cells (SR5); experiment: cell killing, trypan blue exclusion, RB-reconstituted Saos2 cells; conditions: 10 μM, 60 hours
Method: (§3) FIG. 15. Differential effect of INH1 in Rb positive and negative osteosarcoma Saos2 cells. Cells grown in log-phase were either untreated or treated with 0.08% DMSO or INH1 at the indicated concentrations for 60 hours. Surviving cells were counted by trypan blue exclusion and expressed as a percentage of the control. SR5 is a Rb reconstituted Saos-2 cell line. The values were the average of a triplicate set of experiments, with error bars representing the SEM.

[8] = tested on: parental (RB-negative) Saos2 cells; experiment: cell killing, trypan blue exclusion, parental Saos2 cells; conditions: 10 μM, 60 hours
Method: as §3

Row | Compound | activity in killing dividing cells (HeLa cells [1]) | killing activity by colony formation (HeLa cells [2]) | Nek2 co-precipitated with anti-Hec1 antibodies [3] | Nek2 co-precipitated with anti-Hec1 antibodies ([3]; listed as INH 1) | Nek2 phosphorylation of Hec1 (S165) [4] | chromosome segregation phenotype (HeLa cells [5]) | cell death by FACS analysis (HeLa cells [6]) | cells killed [7] | cells killed [8]
1 | Cc1ccc(-c2csc(NC(=O)c3ccccc3)n2)c(C)c1 [INH1] | significant activity | significant higher killing activity | very little or no Nek2 protein | Nek2 failed to be co-immunoprecipitated with Hec1 | abolished; also recorded: undetectable | generated chromosome missegregations | led to cell death | < 5% | more than 50%
2 | INH2 | significant activity |  |  |  | abolished; also recorded: undetectable |  |  |  | 
